Results taken from PMC5218480 (PLoS ONE, 2017).

Test system: MV-4-11 cells
Experiment: Gene expression microarray analysis (Affymetrix PrimeView) and GSEA
Type: cell-based, human
Design: RFU PODN (11730768_x_at) / Fold change /veh PODN (11730768_x_at) / RFU LINC00158 (11744669_a_at) / Fold change /veh LINC00158 (11744669_a_at) / RFU DUSP10 (11751237_a_at) / Fold change /veh DUSP10 (11751237_a_at) / RFU ID3 (11757404_x_at) / Fold change /veh ID3 (11757404_x_at) / RFU PLEKHG5 (11737974_s_at) / Fold change /veh PLEKHG5 (11737974_s_at) / RFU LRRC4B (11730491_at) / Fold change /veh LRRC4B (11730491_at) / RFU GIMAP4 (11747438_a_at) / Fold change /veh GIMAP4 (11747438_a_at) / RFU KRT8 (11758183_x_at) / Fold change /veh KRT8 (11758183_x_at) / RFU CNN1 (11734310_a_at) / Fold change /veh CNN1 (11734310_a_at) / RFU VPS37D (11726825_at) / Fold change /veh VPS37D (11726825_at) / RFU C10orf10 (11716522_x_at) / Fold change /veh C10orf10 (11716522_x_at) / RFU KIR2DL2 /// KIR2DL4 /// KIR2DL5A /// KIR2DL5B /// KIR2DS1 /// KIR2DS2 /// KIR2DS3 /// KIR2DS4 /// KIR3DL3 /// KIR3DL3 /// KIR3DS1 (11738374_at) / Fold change /veh KIR2DL2 /// KIR2DL4 /// KIR2DL5A /// KIR2DL5B /// KIR2DS1 /// KIR2DS2 /// KIR2DS3 /// KIR2DS4 /// KIR3DL3 /// KIR3DL3 /// KIR3DS1 (11738374_at) / RFU C1QL1 (11718748_at) / Fold change /veh C1QL1 (11718748_at) / RFU TMPRSS4 (11747572_a_at) / Fold change /veh TMPRSS4 (11747572_a_at) / RFU HAMP (11756126_x_at) / Fold change /veh HAMP (11756126_x_at) / RFU RNFT2 (11725882_a_at) / Fold change /veh RNFT2 (11725882_a_at) / RFU NR4A2 (11747474_a_at) / Fold change /veh NR4A2 (11747474_a_at) / RFU ABCC12 (11746883_a_at) / Fold change /veh ABCC12 (11746883_a_at) / RFU TMEM136 (11760407_x_at) / Fold change /veh TMEM136 (11760407_x_at) / RFU CLDN22 /// WWC2 (11732394_at) / Fold change /veh CLDN22 /// WWC2 (11732394_at) / RFU HLA-DPB1 (11760878_x_at) / Fold change /veh HLA-DPB1 (11760878_x_at) / RFU SPINT1 (11716480_a_at) / Fold change /veh SPINT1 (11716480_a_at) / RFU GAP43 (11754022_s_at) / Fold change /veh GAP43 (11754022_s_at) / RFU A4GNT (11735810_at) / Fold change /veh A4GNT (11735810_at) / RFU PRB3 (11715151_x_at) / Fold change /veh PRB3 (11715151_x_at) / RFU TUBB4B (11761932_at) / Fold change /veh TUBB4B (11761932_at) / RFU CAPN14 (11732068_a_at) / Fold change /veh CAPN14 (11732068_a_at) / RFU TMCC2 (11721928_a_at) / Fold change /veh TMCC2 (11721928_a_at) / RFU IRGQ (11745062_a_at) / Fold change /veh IRGQ (11745062_a_at) / RFU FAM174B (11720279_a_at) / Fold change /veh FAM174B (11720279_a_at) / RFU TMPRSS4 (11748680_a_at) / Fold change /veh TMPRSS4 (11748680_a_at) / RFU FAM212B (11763350_a_at) / Fold change /veh FAM212B (11763350_a_at) / RFU PLEKHG5 (11743358_a_at) / Fold change /veh PLEKHG5 (11743358_a_at) / RFU ZSCAN30 (11745921_a_at) / Fold change /veh ZSCAN30 (11745921_a_at) / RFU CMKLR1 (11741424_a_at) / Fold change /veh CMKLR1 (11741424_a_at) / RFU LOC101060620 /// MAPK8IP1 (11723275_at) / Fold change /veh LOC101060620 /// MAPK8IP1 (11723275_at) / RFU SPTSSB (11747773_x_at) / Fold change /veh SPTSSB (11747773_x_at) / RFU PRSS12 (11739890_at) / Fold change /veh PRSS12 (11739890_at) / RFU BIN1 (11741810_x_at) / Fold change /veh BIN1 (11741810_x_at) / RFU WNT11 (11732464_a_at) / Fold change /veh WNT11 (11732464_a_at) / RFU C10orf10 (11716521_a_at) / Fold change /veh C10orf10 (11716521_a_at) / RFU C5orf56 (11738089_at) / Fold change /veh C5orf56 (11738089_at) / RFU CYB561 (11721691_x_at) / Fold change /veh CYB561 (11721691_x_at) / RFU ANKRD19P (11752326_a_at) / Fold change /veh ANKRD19P (11752326_a_at) / RFU OR2T12 /// OR2T33 /// OR2T8 (11738714_s_at) / Fold change /veh OR2T12 /// OR2T33 /// OR2T8 (11738714_s_at) / RFU VCAN (11748164_a_at) / Fold change /veh VCAN (11748164_a_at) / RFU JSRP1 (11732532_at) / Fold change /veh JSRP1 (11732532_at) / RFU KRTAP10-11 (11738290_x_at) / Fold change /veh KRTAP10-11 (11738290_x_at) / RFU MYO3A (11730013_a_at) / Fold change /veh MYO3A (11730013_a_at) / RFU EBF3 (11725865_a_at) / Fold change /veh EBF3 (11725865_a_at) / RFU CAMK2N1 (11719241_x_at) / Fold change /veh CAMK2N1 (11719241_x_at) / RFU C5orf56 (11738088_a_at) / Fold change /veh C5orf56 (11738088_a_at) / RFU OLFML3 (11715873_a_at) / Fold change /veh OLFML3 (11715873_a_at) / RFU LOC100653217 /// NTM (11731650_a_at) / Fold change /veh LOC100653217 /// NTM (11731650_a_at) / RFU MAPK11 (11762145_a_at) / Fold change /veh MAPK11 (11762145_a_at) / RFU FIZ1 (11724087_x_at) / Fold change /veh FIZ1 (11724087_x_at) / RFU OASL (11726364_x_at) / Fold change /veh OASL (11726364_x_at) / RFU SOX15 (11748057_x_at) / Fold change /veh SOX15 (11748057_x_at) / RFU CD79A (11719716_a_at) / Fold change /veh CD79A (11719716_a_at) / RFU HIST1H1D (11736915_at) / Fold change /veh HIST1H1D (11736915_at) / RFU CASKIN2 (11723855_a_at) / Fold change /veh CASKIN2 (11723855_a_at) / RFU LOC730098 (11760151_x_at) / Fold change /veh LOC730098 (11760151_x_at) / RFU OR4N2 (11742367_at) / Fold change /veh OR4N2 (11742367_at) / RFU PRRT2 (11749266_a_at) / Fold change /veh PRRT2 (11749266_a_at) / RFU SNX32 (11753110_a_at) / Fold change /veh SNX32 (11753110_a_at) / RFU CDHR5 (11726645_a_at) / Fold change /veh CDHR5 (11726645_a_at) / RFU RCAN1 (11760418_a_at) / Fold change /veh RCAN1 (11760418_a_at) / RFU FAM167A (11723789_a_at) / Fold change /veh FAM167A (11723789_a_at) / RFU FAM26E (11764081_at) / Fold change /veh FAM26E (11764081_at) / RFU ISYNA1 (11749810_s_at) / Fold change /veh ISYNA1 (11749810_s_at) / RFU ACY1 (11761880_at) / Fold change /veh ACY1 (11761880_at) / RFU 11764098_at / Fold change /veh 11764098_at / RFU SAMD14 (11745864_x_at) / Fold change /veh SAMD14 (11745864_x_at) / RFU NPB (11741838_a_at) / Fold change /veh NPB (11741838_a_at) / RFU TMPRSS6 (11731388_a_at) / Fold change /veh TMPRSS6 (11731388_a_at) / RFU KRTAP10-2 (11738614_at) / Fold change /veh KRTAP10-2 (11738614_at) / RFU ARHGAP8 /// PRR5-ARHGAP8 (11727945_x_at) / Fold change /veh ARHGAP8 /// PRR5-ARHGAP8 (11727945_x_at) / RFU KRTAP5-7 /// NADSYN1 (11734609_at) / Fold change /veh KRTAP5-7 /// NADSYN1 (11734609_at) / RFU RASL12 (11751679_a_at) / Fold change /veh RASL12 (11751679_a_at) / RFU CDKN2B (11736163_a_at) / Fold change /veh CDKN2B (11736163_a_at) / RFU PRF1 (11729649_at) / Fold change /veh PRF1 (11729649_at) / RFU, ZNF638 /// ZNF638-IT1 / Fold change vs veh, ZNF638 /// ZNF638-IT1 / RFU, PANK3 / Fold change vs veh, PANK3 / RFU, SH3YL1 / Fold change vs veh, SH3YL1 / RFU, ZEB2 / Fold change vs veh, ZEB2 / RFU, NRIP1 / Fold change vs veh, NRIP1 / RFU, PTTG1IP / Fold change vs veh, PTTG1IP / RFU, CAPN2 / Fold change vs veh, CAPN2 / RFU, MED14 / Fold change vs veh, MED14 / RFU, SNORA58 / Fold change vs veh, SNORA58 / RFU, C1orf63 / Fold change vs veh, C1orf63 / RFU, LRRFIP1 / Fold change vs veh, LRRFIP1 / RFU, NDUFAF7 / Fold change vs veh, NDUFAF7 / RFU, SLC12A2 / Fold change vs veh, SLC12A2 / RFU, IBTK / Fold change vs veh, IBTK / RFU, ESF1 / Fold change vs veh, ESF1 / Fold change vs veh, TMEM50B / RFU, TAOK1 / Fold change vs veh, TAOK1 / RFU, ACBD3 / Fold change vs veh, ACBD3 / RFU, TMA16 / Fold change vs veh, TMA16 / RFU, RWDD3 / Fold change vs veh, RWDD3 / RFU, BCAT1 / Fold change vs veh, BCAT1 / RFU, EDEM3 / Fold change vs veh, EDEM3 / RFU, TMEM33 / Fold change vs veh, TMEM33 / RFU, WDR75 / Fold change vs veh, WDR75 / RFU, AHCTF1 / Fold change vs veh, AHCTF1 / RFU, TFRC / Fold change vs veh, TFRC / RFU, ZDHHC17 / Fold change vs veh, ZDHHC17 / RFU, NOM1 / Fold change vs veh, NOM1 / RFU, ARL8B / Fold change vs veh, ARL8B / RFU, ZBTB11 / Fold change vs veh, ZBTB11 / RFU, TAMM41 / Fold change vs veh, TAMM41 / RFU, KIAA1704 /// LOC100996395 / Fold change vs veh, KIAA1704 /// LOC100996395 / RFU, ING1 / Fold change vs veh, ING1 / RFU, TRMT61B / Fold change vs veh, TRMT61B / RFU, FUBP3 / Fold change vs veh, FUBP3 / RFU, TP53 / Fold change vs veh, TP53 / RFU, TNKS2 / Fold change vs veh, TNKS2 / RFU, ZFP14 / Fold change vs veh, ZFP14 / RFU, ACTR2 / Fold change vs veh, ACTR2 / RFU, PPP3R1 / Fold change vs veh, PPP3R1 / RFU, PIK3R1 / Fold change vs veh, PIK3R1 / RFU, HNRNPA1 / Fold change vs veh, HNRNPA1 / RFU, RNF170 / Fold change vs veh, RNF170 / RFU, ZNF28 / Fold change vs veh, ZNF28 / RFU, RNGTT / Fold change vs veh, RNGTT / RFU, OGT / Fold change vs veh, OGT / RFU, BRD1 / Fold change vs veh, BRD1 / RFU, MARS / Fold change vs veh, MARS / RFU, ZNF655 / Fold change vs veh, ZNF655 / RFU, FAHD1 / Fold change vs veh, FAHD1 / RFU, BDP1 / Fold change vs veh, BDP1 / RFU, LRRCC1 / Fold change vs veh, LRRCC1 / RFU, ARID1A / Fold change vs veh, ARID1A / RFU, ZNF146 / Fold change vs veh, ZNF146 / RFU, ZNF330 / Fold change vs veh, ZNF330 / RFU, GPN3 / Fold change vs veh, GPN3 / RFU, C9orf123 / Fold change vs veh, C9orf123 / RFU, N4BP2L2 / Fold change vs veh, N4BP2L2 / RFU, ARFIP1 / Fold change vs veh, ARFIP1 / RFU, FAM179B / Fold change vs veh, FAM179B / RFU, BCL10 / Fold change vs veh, BCL10 / RFU, UHRF1BP1L / Fold change vs veh, UHRF1BP1L / RFU, BET1 / Fold change vs veh, BET1 / RFU, CNOT2 / Fold change vs veh, CNOT2 / RFU, ZNF268 / Fold change vs veh, ZNF268 / Fold change vs veh, ZNF507 / RFU, DGCR2 / Fold change vs veh, DGCR2 / RFU, WDSUB1 / Fold change vs veh, WDSUB1 / Fold change vs veh, HSP90B1 /// MIR3652 / RFU, ADSS / Fold change vs veh, ADSS / RFU, GK / Fold change vs veh, GK / RFU, ZNF148 / Fold change vs veh, ZNF148 / RFU, TAF9 / Fold change vs veh, TAF9 / RFU, SLC1A5 / Fold change vs veh, SLC1A5 / RFU, SLMO2 / Fold change vs veh, SLMO2 / RFU, ABCC4 / Fold change vs veh, ABCC4 / RFU, LOC101060439 /// RAP1B / Fold change vs veh, LOC101060439 /// RAP1B / RFU, RFX7 / Fold change vs veh, RFX7 / RFU, GTPBP10 / Fold change vs veh, GTPBP10 / RFU, CNEP1R1 / Fold change vs veh, CNEP1R1 / RFU, BIVM-ERCC5 /// ERCC5 / Fold change vs veh, BIVM-ERCC5 /// ERCC5 / RFU, ILF3 / Fold change vs veh, ILF3 / RFU 11762660_at / Fold change /veh 11762660_at / RFU VCAN (11757783_s_at) / Fold change /veh VCAN (11757783_s_at) / RFU DDX43 (11728927_at) / Fold change /veh DDX43 (11728927_at) / RFU KRT8 (11758188_x_at) / Fold change /veh KRT8 (11758188_x_at) / RFU NKD1 (11759106_at) / Fold change /veh NKD1 (11759106_at) / RFU SRD5A1 (11742802_a_at) / Fold change /veh SRD5A1 (11742802_a_at) / RFU TPSAB1 /// TPSB2 (11721975_s_at) / Fold change /veh TPSAB1 /// TPSB2 (11721975_s_at) / RFU GSTM3 (11746129_a_at) / Fold change /veh GSTM3 (11746129_a_at) / RFU IL23R (11737362_x_at) / Fold change /veh IL23R (11737362_x_at) / RFU TMEM51 (11727254_a_at) / Fold change /veh TMEM51 (11727254_a_at) / RFU PIWIL2 (11732686_x_at) / Fold change /veh PIWIL2 (11732686_x_at) / RFU ORM1 (11744905_x_at) / Fold change /veh ORM1 (11744905_x_at) / RFU CCDC152 (11743942_at) / Fold change /veh CCDC152 (11743942_at) / RFU ECM1 (11717891_a_at) / Fold change /veh ECM1 (11717891_a_at) / RFU IL23R (11748794_a_at) / Fold change /veh IL23R (11748794_a_at) / RFU TNFAIP8L3 (11732012_x_at) / Fold change /veh TNFAIP8L3 (11732012_x_at) / RFU MBOAT4 (11741988_at) / Fold change /veh MBOAT4 (11741988_at) / RFU 11764193_at / Fold change /veh 11764193_at / RFU TMEM53 (11763286_at) / Fold change /veh TMEM53 (11763286_at) / RFU MAGEB2 (11727129_at) / Fold change /veh MAGEB2 (11727129_at) / RFU TMEM200A (11744735_a_at) / Fold change /veh TMEM200A (11744735_a_at) / RFU CCDC152 (11751479_a_at) / Fold change /veh CCDC152 (11751479_a_at) / RFU FAM211A (11726209_a_at) / Fold change /veh FAM211A (11726209_a_at) / RFU RGS16 (11746705_a_at) / Fold change /veh RGS16 (11746705_a_at) / RFU VCAN (11755009_s_at) / Fold change /veh VCAN (11755009_s_at) / RFU RHOB (11743442_s_at) / Fold change /veh RHOB (11743442_s_at) / RFU RGS16 (11720943_a_at) / Fold change /veh RGS16 (11720943_a_at) / RFU RGS16 (11720944_at) / Fold change /veh RGS16 (11720944_at) / RFU, VPS4B / Fold change vs veh, VPS4B / RFU, CREB1 / Fold change vs veh, CREB1 / RFU, DNAJC13 / Fold change vs veh, DNAJC13 / RFU, GNAQ / Fold change vs veh, GNAQ / RFU, CDK5R1 / Fold change vs veh, CDK5R1 / RFU, ZRANB3 / Fold change vs veh, ZRANB3 / RFU, CUL4A / Fold change vs veh, CUL4A / RFU, CCNY / Fold change vs veh, CCNY / RFU, UFL1 / Fold change vs veh, UFL1 / RFU, COG3 / Fold change vs veh, COG3 / RFU, DIAPH2 / Fold change vs veh, DIAPH2 / RFU, SKA2 / Fold change vs veh, SKA2 / RFU, AFF3 / Fold change vs veh, AFF3 / RFU, LMF1 / Fold change vs veh, LMF1 / RFU, IPO11 / Fold change vs veh, IPO11 / RFU, DFFB / Fold change vs veh, DFFB / RFU, FOXP1 / Fold change vs veh, FOXP1 / RFU, CARD8 / Fold change vs veh, CARD8 / RFU, STRN3 / Fold change vs veh, STRN3 / RFU, ADK / Fold change vs veh, ADK / RFU, RASSF2 / Fold change vs veh, RASSF2 / RFU, WIPF1 / Fold change vs veh, WIPF1 / RFU, LARP1B / Fold change vs veh, LARP1B / RFU, RASA1 / Fold change vs veh, RASA1 / RFU, RB1 / Fold change vs veh, RB1 / RFU, PPFIA1 / Fold change vs veh, PPFIA1 / RFU, MAT2A / Fold change vs veh, MAT2A / RFU, CCT5 / Fold change vs veh, CCT5 / RFU, WDR92 / Fold change vs veh, WDR92 / RFU, CUX1 / Fold change vs veh, CUX1 / RFU, TTC7A / Fold change vs veh, TTC7A / RFU, TMEM135 / Fold change vs veh, TMEM135 / RFU, DEPTOR / Fold change vs veh, DEPTOR / RFU, CPM / Fold change vs veh, CPM / RFU, DNAJB6 / Fold change vs veh, DNAJB6 / RFU, CACNA2D3 / Fold change vs veh, CACNA2D3 / RFU, DTX4 / Fold change vs veh, DTX4 / RFU, TFCP2 / Fold change vs veh, TFCP2 / RFU, GMCL1 /// GMCL1P1 / Fold change vs veh, GMCL1 /// GMCL1P1 / RFU, AEBP2 / Fold change vs veh, AEBP2 / RFU, SNHG1 /// SNORD22 /// SNORD25 /// SNORD26 /// SNORD27 /// SNORD28 /// SNORD29 /// SNORD31 / Fold change vs veh, SNHG1 /// SNORD22 /// SNORD25 /// SNORD26 /// SNORD27 /// SNORD28 /// SNORD29 /// SNORD31 / Fold change (Aza/veh), C12orf56 (ProbeSet 11735607_a_at) / Fold change (ACY-1035/veh), C12orf56 (ProbeSet 11735607_a_at) / Fold change (Aza/veh), FGFR1OP (ProbeSet 11751329_s_at) / Fold change (ACY-1035/veh), FGFR1OP (ProbeSet 11751329_s_at) / Fold change (Aza/veh), VPS36 (ProbeSet 11739960_a_at) / Fold change (ACY-1035/veh), VPS36 (ProbeSet 11739960_a_at) / RFU SYPL1 (11715823_x_at) / Fold change /veh SYPL1 (11715823_x_at) / RFU IGFBP7 (11715501_s_at) / Fold change /veh IGFBP7 (11715501_s_at) / RFU REEP3 (11722064_at) / Fold change /veh REEP3 (11722064_at) / RFU IGLL1 (11728026_x_at) / Fold change /veh IGLL1 (11728026_x_at): dose or concentration left out as unconfirmed
Conditions: ProbeSet 11750457_a_at; LIST B

## Nc1ccc(-c2cccs2)cc1NC(=O)c1ccc2c(c1)cc(C1CC1)n2CCN1CCOCC1 [ACY-1035]
  Fold change vs veh, GTPBP10: 0.84
